Values of other authors, collected in patent publication US9637731B2, “Heavy metal stabilization and methane inhibition during induced or naturally occurring reducing conditions in contaminated media” (Innovative Environmental Technologies, Inc., priority 2013, dated 2017).

How the values were obtained:
[1] = system: F420-dependent NADP oxidoreductase enzyme; conditions: 3D protein model
[2] = system: pure methanogenic bacteria

Row | SMILES | affinity for the model protein compared to the natural ligand F420 [1] | methane formation (Methanobrevibacter) | concentration that completely inhibited growth (Methanobrevibacter; per ml of culture medium) [nmol/mL] | IC50 (Methanobrevibacter; per ml of culture medium, read-out: concentration resulting in 50% inhibition of growth) [µM] | populations of the non-methanogens (non-methanogens) | growth and activity of pure methanogenic bacteria [2] | effect on cellulolytic bacteria (cellulolytic bacteria)
1 | CC[C@H](C)C(=O)O[C@H]1CCC=C2C=C[C@H](C)[C@H](CC[C@@H]3C[C@@H](O)CC(=O)O3)[C@H]21 [compactin] | more affinity | – | – | – | – | – | –
2 | CC[C@H](C)C(=O)O[C@H]1C[C@@H](C)C=C2C=C[C@H](C)[C@H](CC[C@@H]3C[C@@H](O)CC(=O)O3)[C@H]21 [lovastatin, Lovastatin] | more affinity | significantly inhibited | 10 | 4 | not affected | significantly reduced | without any negative effect
